“Also recorded” adds a separate entry of the source.
How the values were obtained:
[1] = biological target: T1, Na/K-ATPase-associated Src (Sus scrofa, UniProt P05024); format: biochemical, pig; conditions: for Effect on activity of Na/K-ATPase-associated Src, Na/K-ATPase stabilized in E1P: NEM and AMP-PNP used together; for Effect on activity of Na/K-ATPase-associated Src: purified pig kidney Na/K-ATPase treated with modifier or ouabain, incubated with purified Src
T1 construct: The Na/K-ATPase was purified from pig kidney and the purified Src was purchased from Upstate; tissue Upstate (for the Src chain); host or cells: pig kidney
Experimental: The Na/K-ATPase was purified from pig kidney and the purified Src was purchased from Upstate. To stabilize the Na/K-ATPase in the E2P conformation, the purified Na/K-ATPase was treated by two different fluoride compounds (BeF and AIF) as described, washed and then incubated with Src. The ouabain-treated and control Na/K-ATPase/Src complex was used as positive and negative controls for the experiments, respectively. Similarly, the Na/K-ATPase was stabilized at the E1P state by NEM/AMPPNP as described and then analyzed.
The purified Na/K-ATPase was subjected to chymotrypsin or trypsin digestion as described. The digested enzyme was washed and assayed for Na/K-ATPase activity. The enzyme preparations with less than 25% activity was incubated with Src in 150 mM Na^+ medium in the presence or absence of 10 μM ouabain. The non-digested enzyme was used as control. […] Quantitative data was presented as mean±S.E. of at least 3 separate experiments. *, p<0.05; **, p<0.01.
The inventors utilized different chemical modifiers to stabilize the Na/K-ATPase in distinct conformational states and then assessed the conformation-dependent effect of Na/K-ATPase on Src. Fluoride compounds such as aluminum fluoride and beryllium fluoride, can interact with Na/K-ATPase as phosphate analogues, and stabilize the enzyme as well as other P-type ATPase in the E2P conformation.

LLC-PK1 cells = assay: Western blot of Src and ERKs in LLC-PK1 cell lysates; format: cell-based
Experimental: FIG. 3E, FIG. 3F, and FIG. 3G: Cells were exposed to media containing different concentrations of K^+ or Na^+, and then lysed. Cell lysates were subjected to Western blot analyses of Src and ERKs as indicated. Quantitative data was presented as mean±S.E. of at three independent experiments. *, p<0.05; **, p<0.01.
To verify these findings, the inventors also conducted Western blot analyses of cell lysates after the cells were incubated in normal or low K^+ medium.

Na/K-ATPase/Src complex = biological target: T2, Na/K-ATPase/Src complex (Homo sapiens, UniProt P12931); assay: Ouabain-induced Src activation (Tyr418 autophosphorylation, Western blot) in a mixture of purified Na/K-ATPase and Src; format: biochemical; conditions: Src preincubated with peptide 15 min, pig kidney Na/K-ATPase 15 min, 1 μM ouabain 5 min, 2 mM ATP/Mg2+
T2 construct: purchased
Experimental: FIG. 4. […] CD2C2 peptide was incubated with purified Src (the amount was indicated as molar ratio of Src/Cd2C2) for 15 minutes in PBS solution. Then purified Na/K-ATPase from pig kidney was added for another 15 minutes. After that, ouabain was added to the reaction system for 5 minutes, followed by addition of 2 mM Mg2+/ATP. The Src activity was determined by Western blot probing with anti-phosphorylated Tyr418. A representative Western blot was shown, and quantitative data was presented as mean±S.E. of at 3 separate experiments. **, p<0.01.
FIG. 7B, antagonizing ouabain-induced Src activation by CD2C2. Src was preincubated with indicated amount of CD2C2 peptide for 15 min in PBS. […] Then Src autophosphorylation was detected in the presence of 2 mM ATP/Mg^2+. […]
To support this notion, the inventors checked whether the peptides derived from C-terminus of CD2 can attenuate the binding between CD2 and Src. […] Then pull-down pellets were analyzed by Western blot with antibody against Src. […] Then Src autophosphorylation was detected in the presence of 2 mM ATP/Mg^2+. […]
The inventors incubated the test chemicals with commercially available purified Src for 15 minutes in PBS solution. […] The Src activity was determined by Western blot probing with anti-phosphorylated Tyr418. […] Both peptides were incubated in a 96 well plate, and the FRET energy transfer was measured using a spectra meter. […]

Src SH2 domain = Src SH2 domain (Homo sapiens, UniProt P12931); assay: GST pull-down of GST-CD2 binding to Src in the absence and presence of peptides; conditions: peptide incubated with GST-CD2 and Src for 15 min, Western blot with anti-Src antibody
Experimental: CD2C2 was added to a mixture of Src and GST-CD2 at indicated concentrations. Src in the pull-down products was analyzed by Western blot with anti-Src antibody.
To support this notion, the inventors checked whether the peptides derived from C-terminus of CD2 can attenuate the binding between CD2 and Src. Purified GST-CD2 was incubated with Src in the absence and presence of peptides for 15 min. Then pull-down pellets were analyzed by Western blot with antibody against Src. […] If CD2C2 peptide disrupts the SH2/CD2 interaction, the inventors expect that CD2C2 may abolish CTS-induced Src activation. To test that, the inventors preincubated Src with indicated amount of CD2 peptides for 15 min in PBS. Then purified pig kidney Na/K-ATPase was added for another 15 min. 1 μM ouabain was added to mixture for 5 min. Then Src autophosphorylation was detected in the presence of 2 mM ATP/Mg^2+. […] Therefore, to search for new antagonists, the inventors will perform the following four sets of experiments.

Nc1ncnc2c1ncn2[C@@H]1O[C@H](COP(=O)(O)OP(=O)(O)NP(=O)(O)O)[C@@H](O)[C@H]1O [AMP-PNP, adenyl-5′-yl imidodiphosphate]
Effect on activity of Na/K-ATPase-associated Src, Na/K-ATPase stabilized in E1P [1]: completely inhibited

CCN1C(=O)C=CC1=O [NEM, N-ethylmaleimide]
Effect on activity of Na/K-ATPase-associated Src, Na/K-ATPase stabilized in E1P [1]: completely inhibited

[Be+2].[F-].[F-] [beryllium fluoride]
Effect on activity of Na/K-ATPase-associated Src [1]: sufficient to stimulate the Na/K-ATPase-associated Src

C[C@@H]1O[C@@H](O[C@H]2C[C@@H](O)[C@]3(CO)[C@H]4[C@H](O)C[C@]5(C)[C@@H](C6=CC(=O)OC6)CC[C@]5(O)[C@@H]4CC[C@]3(O)C2)[C@H](O)[C@H](O)[C@H]1O [ouabain]
Effect on cellular Src activity and ERKs (LLC-PK1 cells): stimulated cellular Src activity
Effect on activity of Na/K-ATPase-associated Src [1]: able to stimulate the Na/K-ATPase-associated Src

STNCV EGTAR GIVVY TGD (STNCVEGTARGIVVYTGD; listed as Sus scrofa) [CD2C2, peptide derived from C-terminus of CD2 of Na/K-ATPase α1 subunit; ouabain antagonist]
Antagonism of ouabain-induced Src activation (Na/K-ATPase/Src complex): potent ouabain antagonist; also recorded: abolished ouabain-induced Src activation in a dose-dependent manner
Antagonism of ouabain-induced Src activation (Na/K-ATPase/Src complex; listed as SEQ ID NO:1): abolishes ouabain-induced Src stimulation
Competition with binding of GST-CD2 to Src (Src in pull-down products) (Src SH2 domain): attenuates the binding of CD2 to Src; also recorded: able to compete with and block the binding of GST-CD2 to Src SH2 domain
Competition with binding of GST-CD2 to Src (Src in pull-down products) (Src SH2 domain; listed as SEQ ID NO:1): disrupts the interaction of the ATPase CD2/Src SH2 domain

aluminum fluoride
Effect on activity of Na/K-ATPase-associated Src [1]: sufficient to stimulate the Na/K-ATPase-associated Src
